Measured values: US9522962B2, “Peptides, conjugates and method for increasing immunogenicity of a vaccine” (Academisch Ziekenhuis Leiden h.o.d.n. LUMC, priority 2010, dated 2016)
Entries after “also recorded” stand apart in the source; their conditions may differ. Read-outs that look alike come from different tables or passages of the source. Square brackets hold non-standard residues; d marks the D form. Ends that are not written are not given here. * marks the point of attachment. Biotin = O=C1N[C@H]2[C@H](CS[C@H]2CCCCC(=O)*)N1; code O = not defined here; Ahx = NCCCCCC(=O)O

Key:
[1] = system: antibodies in TETAQUIN® (anti-TTd antibodies); format: binding, human
[2] = system: antibodies in individual human sera (e.g. serum 034960); assay: Tettox ELISA of biotinylated peptides on individual human sera; format: binding; details: human serum 034960 diluted 100x
Procedure: a 96-wells plate (preferably from Euro-Diagnostica, Arnhem, The Netherlands) is coated with streptavidin. The streptavidin coated 96 wells plate is blocked with PBS containing 5% BSA (200 μl/well, 1 h, room temperature). Subsequently, the plate is washed three times with PBS containing 0.05% TWEEN20® (polysorbate 20). A biotinylated peptide is coated by 1 h incubation at room temperature with 100 μl/well of a 2 μg/ml solution of the biotinylated peptide in PBS containing 1% BSA. The plate is washed three times with PBS containing 0.05% TWEEN20® (polysorbate 20) followed by incubation for 1 h at room temperature with 100 μl serum from […] a human subject as defined above (preferably having a high titer of anti-TTd antibodies) that had been diluted at least 100, 200, 400, 500 or 1000 times and preferably not more than 100,000, 10,000, 7,500, 5,000 or 2,500 times with PBS containing 1% BSA. Then the plate is washed three times with PBS containing 0.05% TWEEN20®(polysorbate 20). Each well is incubated for 1 h at room temperature with a HRP-conjugated IgG antibody (mouse anti-human IgG-HRP monoclonal, clone G18-145, cat no 555788, Becton Dickinson, 100 μl/well of a 1000× dilution in PBS containing 0.05% TWEEN20® (polysorbate 20)) after which the plate is washed three times with PBS containing 0.05% TWEEN20® (polysorbate 20). Development is performed with 2,2′-azino-di-(3-ethylbenzthiazoline sulfonic acid), ABTS+H2O2 1/1000, 100 μl/well. Optical density is measured at 415 nm with a BIO-RAD, model 680, microplate reader. In each plate, preferably a negative contol is included, more preferably at least in triplicate. A preferred negative contol is serum from a human subject without detectable anti-TTd antibodies. Another preferred negative control is a solution of BSA. A peptide according to (ii) above is a peptide according to the invention if it is bound by antibodies in at least 40, 45, 50, 55, 60, 65, 70, 75, 80, 85, 87, 90, 91, 92, 93, 94, 95, 96, 97, 98, 99% most preferably 100% of the tested human serum samples. A peptide is considered to be bound by antibodies in a serum sample if the determined optical density for that particular serum sample is at least 2.0, more preferably 2.5, 3.0, 3.5 or more times higher as compared to the optical density that is determined for the negative control.
Streptavidin coated 96 wells plates (Euro-Diagnostica) were blocked with PBS containing 5% BSA (200 μl/well, 1 h, room temperature). Plates were washed three times with PBS containing 0.05% TWEEN20® (polysorbate 20). Coating of the biotinylated peptides was performed by 1 h incubation at room temperature with 100 μl/well of a 2 μg/ml solution of the biotinylated peptide in PBS containing 1% BSA. Plates were washed three times with PBS containing 0.05% TWEEN20®. Wells were incubated for 1 h at room temperature with either 100 μl TETAQUIN® […] that had been diluted 800× with PBS containing 1% BSA or with 100 μl human serum that had been diluted 100× with PBS containing 1% BSA. Plates were washed three times with PBS containing 0.05% TWEEN20® (polysorbate 20). Each well was incubated for 1 h at room temperature with a HRP-conjugated IgG antibody (mouse anti-human IgG-HRP monoclonal, clone G18-145, cat no 555788, Becton Dickinson, 100 μl/well of a 1000× dilution in PBS containing 0.05% TWEEN20® (polysorbate 20)). Plates were washed three times with PBS containing 0.05% TWEEN20® (polysorbate 20). Development was performed with 2,2′-azino-di-(3-ethylbenzthiazoline sulfonic acid), ABTS+H2O2 1/1000, 100 μl/well. Optical density was measured at 415 nm with a BIO-RAD, model 680, microplate reader.
Thereafter, the inventors tested these 7 peptides on individual sera, because an epitope is needed to which every person makes antibodies.

[3] = Table 6, conservative substitutions scan of […]
[4] = Table 3, further length variants and Lys(formyl) variants, […], neg. control OD 0.30
[5] = Table 2, length variants of peptide β-32, section 'With linker', […] diluted 800x, OD at 415 nm
[6] = Table 2, length variants of peptide β-32, section 'Without linker' (sequence listed without Z O), […]

| Substance | ELISA OD TETAQUIN ([1]; Table 5, Ala scan of […]) | ELISA OD SERUM 034960 ([2]; Table 5, Ala scan of […]) | ELISA OD TETAQUIN [1, 3] | ELISA OD SERUM 034960 [2, 3] | other results |
| --- | --- | --- | --- | --- | --- |
| F I G I T E L K A L E S K I N K V F Z O [0942-18] | 1.06 | 1.22 |  |  |  |
| F I G I T E L K K L E S R I N K V F Z O (FIGITELKKLESRINKVF[Ahx]K(Biotin)) [0942-40] |  |  | 1.19 | 1.27 |  |
| F I G I T E L K K L E S K L N K V F Z O (FIGITELKKLESKLNKVF[Ahx]K(Biotin)) [0942-41] |  |  | 1.11 | 1.32 |  |
| F I G I T E L K K L E S K I A K V F Z O (FIGITELKKLESKIAKVF[Ahx]K; not fully specified (residue 20)) [0942-24] | 1.37 | 1.29 |  |  |  |
| F I G I T E L K K L E S K I N K L F Z O (FIGITELKKLESKINKLF[Ahx]K; not fully specified (residue 20)) [0942-44] |  |  | 1.30 | 1.47 |  |
| F I G I T E L R K L E S K I N K V F Z O (FIGITELRKLESKINKVF[Ahx]K(Biotin)) [0942-35] |  |  | 1.02 | 0.90 |  |
| F I A I T E L K K L E S K I N K V F Z O [0942-12] | 0.65 | 0.23 |  |  |  |
| F I G I T E L K K I E S K I N K V F Z O [0942-37] |  |  | 1.11 | 1.14 |  |
| F I G I T E L K K L E S K I N A V F Z O (FIGITELKKLESKINAVF[Ahx]K; not fully specified (residue 20)) [0942-25] | 1.30 | 1.28 |  |  |  |
| F I G I S E L K K L E S K I N K V F Z O [0942-32] |  |  | 0.83 | 0.70 |  |
| F I G I T E L K K L E S K I Q K V F Z O (FIGITELKKLESKIQKVF[Ahx]K(Biotin)) [0942-42] |  |  | 1.41 | 1.26 |  |
| F I G I T E A K K L E S K I N K V F Z O [0942-16] | 0.90 | 0.91 |  |  |  |
| A I G I T E L K K L E S K I N K V F Z O [0942-10] | 1.12 | 1.29 |  |  |  |
| F I G I T E I K K L E S K I N K V F Z O [0942-34] |  |  | 0.72 | 0.80 |  |
| F I S I T E L K K L E S K I N K V F Z O (FISITELKKLESKINKVF[Ahx]K(Biotin)) [0942-30] |  |  | 1.10 | 1.32 |  |
| F L G I T E L K K L E S K I N K V F Z O (FLGITELKKLESKINKVF[Ahx]K(Biotin)) [0942-29] |  |  | 1.19 | 1.29 |  |
| F I G I T E L A K L E S K I N K V F Z O [0942-17] | 0.62 | 0.65 |  |  |  |
| F I G I T E L K K L E S K A N K V F Z O (FIGITELKKLESKANKVF[Ahx]K; not fully specified (residue 20)) [0942-23] | 0.88 | 1.08 |  |  |  |

| Substance | ELISA OD TETAQUIN ([1]; Table 5, Ala scan of […]) | ELISA OD SERUM 034960 ([2]; Table 5, Ala scan of […]) | ELISA OD TETAQUIN [1, 3] | ELISA OD SERUM 034960 [2, 3] | other results |
| --- | --- | --- | --- | --- | --- |
| F I G I T E L K K L E A K I N K V F Z O (FIGITELKKLEAKINKVF[Ahx]K; not fully specified (residue 20)) [0942-21] | 1.27 | 1.48 |  |  |  |
| F I G I T E L K K L E T K I N K V F Z O (FIGITELKKLETKINKVF[Ahx]K(Biotin)) [0942-39] |  |  | 0.88 | 1.04 |  |
| F I G I T E L K K A E S K I N K V F Z O [0942-19] | 0.70 | 0.71 |  |  |  |
| F I G I T E L K K L A S K I N K V F Z O (FIGITELKKLASKINKVF[Ahx]K; not fully specified (residue 20)) [0942-20] | 0.85 | 0.91 |  |  |  |
| F I G I T E L K K L E S K I N K V A Z O (FIGITELKKLESKINKVA[Ahx]K; not fully specified (residue 20)) [0942-27] | 1.26 | 1.20 |  |  |  |
| F I G I T E L K K L E S K I N Z O (FIGITELKKLESKIN[Ahx]K(Biotin)) [0925-57] |  |  |  |  | OD [1, 4]: 1.65 |
| KALNPKEIEKLYTSYLSITFLRZO [β54] |  |  |  |  | binding to TETAQUIN (screen of overlapping 22-mer TTx peptides) ([1]; FIG. 3 (α-chain), FIG. 4 (β-chain)): good binding; also recorded: antibodies present |
| Q Y I K A N S K F I G I T E Z O (QYIKANSKFIGITE-{Ahx-code O}; reading uncertain) [P15] |  |  |  |  | OD [1, 5]: 0.25; OD [1, 6]: 0.25 |
| G I T E L K K L E S K I Z O (GITELKKLESKI-{Ahx-code O}; reading uncertain) [P16] |  |  |  |  | OD [1, 5]: 0.45; OD [1, 6]: 0.45 |
| F I G I T E L J J L E S K I Z O [0925-67, J = Lys(formyl)] |  |  |  |  | OD [1, 4]: 1.15 |
| F I G I T E L J J L E S J I Z O [0925-70, J = Lys(formyl)] |  |  |  |  | OD [1, 4]: 1.00 |
| F I G I T E L K K L E S Z O (FIGITELKKLES-{Ahx-code O}; reading uncertain) [P17] |  |  |  |  | OD [1, 5]: 0.45; OD [1, 6]: 0.45 |
| Q Y I K A N S K F I G I T E L K Z O (QYIKANSKFIGITELK-{Ahx-code O}; reading uncertain) [P10] |  |  |  |  | OD [1, 5]: 0.25; OD [1, 6]: 0.25 |
| F I G I T E L K K L E S K I Z O (FIGITELKKLESKI-{Ahx-code O}; reading uncertain) [P11] |  |  |  |  | OD [1, 5]: 1.0; OD [1, 6]: 1.0 |
| J Z SKFIGITELKKLESKINKVF |  |  |  |  | ELISA OD, effect of longer spacer and C- versus N-terminal biotinylation ([1]; Table 4, antibody source not given): 0.28 |
| S K F I G I T E L K K L E S K I Z O (SKFIGITELKKLESKI-{Ahx-code O}; reading uncertain) [P7] |  |  |  |  | OD [1, 5]: 1.15; OD [1, 6]: 1.15 |
| G I T E L K K L E S K I N K Z O (GITELKKLESKINK[Ahx]K(Biotin)) [0925-59] |  |  |  |  | OD [1, 4]: 0.75 |
